From ChEMBL document CHEMBL3046567, “Potential applications of violacein: a microbial pigment” (Med Chem Res, 2012)
Values after ≈ are worked out from the molar mass of the structure shown.

Assays:
[1] = test system: Mus musculus; test: Inhibition of HCl/ethanol- induced gastric damage in Mus musculus (mouse) at 30 mg/kg; type: functional; conditions: Stomach
[2] = test system: Leishmania amazonensis; test: Antiparasitic activity against Leishmania amazonensis MHOM/BR /77/LTB0016 promastigote at 16.8 uM; type: functional
[3] = test system: Leishmania amazonensis; test: Antiparasitic activity against Leishmania amazonensis MHOM/BR /77/LTB0016 after 24 hr; type: functional, organism-based; conditions: MHOM/BR /77/LTB0016, 24 h
[4] = test system: HEp-2; test: Cytotoxicity against Homo sapiens (human) Hep2 cells; type: cell-based
[5] = test system: Vero; test: Cytotoxicity against […] Vero cells; type: cell-based; conditions: Chlorocebus sabaeus
[6] = test system: HL-60; test: Cytotoxicity against Homo sapiens (human) HL60 cells; type: functional, cell-based
[7] = test system: V79; test: Cytotoxicity against Cricetulus griseus V79 cells; type: functional, cell-based
[8] = Cytotoxicity against Homo sapiens (human) Lymphocyte; type: cell-based
[9] = test system: Enterovirus C; test: Antiviral activity against Enterovirus C (Poliovirus) infected HeLa cells at 0.063 ug/ml; type: functional
[10] = test system: U-937; test: Cytotoxicity against Homo sapiens (human) U937 cells; type: functional, cell-based
[11] = test system: HCT-116; test: Cytotoxicity against Homo sapiens (human) HCT116 cells after 24 to 48 hr by MTT assay; type: functional, cell-based
[12] = test system: MOLT-4; test: Cytotoxicity against Homo sapiens (human) MOLT4 cells; type: functional
[13] = Cytotoxicity against Macaca mulatta (Rhesus monkey) MA104 cells; type: cell-based
[14] = test system: DLD-1; test: Cytotoxicity against Homo sapiens (human) DLD1 cells after 24 to 48 hr by MTT assay; type: functional, cell-based
[15] = test system: HT-29; test: Cytotoxicity against Homo sapiens (human) HT-29 cells after 24 to 48 hr by MTT assay; type: functional, cell-based
[16] = test system: Caco-2; test: Cytotoxicity against Homo sapiens (human) Caco2 cells after 24 to 48 hr by MTT assay; type: functional, cell-based
[17] = test system: Leishmania amazonensis; test: Antiparasitic activity against Leishmania amazonensis MHOM/BR /77/LTB0016 promastigote at 460.8 uM; type: functional
[18] = test system: Mus musculus; test: Inhibition of HCl/ethanol- induced gastric damage in Mus musculus (mouse) at 10 mg/kg, po, sd; type: functional; conditions: Stomach
[19] = test system: NCI-H460; test: Cytotoxicity against Homo sapiens (human) NCI-H460 cells; type: functional
[20] = Cytotoxicity against Mus musculus (mouse) EAT cells; type: functional, cell-based
[21] = test system: KM12; test: Cytotoxicity against Homo sapiens (human) KM12 cells; type: functional
[22] = test system: Trypanosoma cruzi; test: Antitrypanosomal activity against trypomastigote of Trypanosoma cruzi Y infected in albino mouse assessed as reduction in parasitemia at 100 mg/kg, ip for 7 days; type: functional; conditions: 168 h, route intraperitoneal
[23] = Cytotoxicity against Macaca mulatta (Rhesus monkey) FRhK4 cells; type: cell-based; conditions: FRhK-4
[24] = test system: Mycobacterium tuberculosis; test: Antimycobacterial activity against Mycobacterium tuberculosis H37Rv; type: functional
[25] = test system: K562; test: Cytotoxicity against Homo sapiens (human) K562 cells; type: functional, cell-based

Cc1c(OCC(F)(F)F)ccnc1C[S+]([O-])c1nc2ccccc2[nH]1 (configuration not stated) [LANSOPRAZOLE]
inhibition in vivo at 30 mg/kg [1]: 63%

N=C(N)c1ccc(OCCCCCOc2ccc(C(=N)N)cc2)cc1 [PENTAMIDINE]
inhibition at 16.8 µM [2]: 100% | EC50 [3]: 460 nM

O=C1NC(c2c[nH]c3ccc(O)cc23)=C/C1=C1\C(=O)Nc2ccccc21 [VIOLACEIN]
IC50 [4]: 2200 nM | IC50 [5]: 2200 nM | IC50 [6]: 800 nM | IC50 [7]: 5000 nM | IC50 [8]: 10000 nM | inhibition at 0.063 µg/mL [9]: 56% | IC50 [10]: < 1000 nM | IC50 [11]: > 1500 nM | GI50 [12]: 30 nM | IC50 [13]: 2200 nM | IC50 [14]: > 1500 nM | IC50 [15]: > 1500 nM | IC50 [16]: > 1500 nM | inhibition at 460.8 µM [17]: 100% | EC50 [3]: 4300 nM | inhibition in vivo at 10 mg/kg [18]: 85% | GI50 [19]: 30 nM | IC50 [20]: 5000 nM | GI50 [21]: 30 nM | inhibition in vivo at 100 mg/kg [22]: 4% | IC50 [23]: 2200 nM | MBC [24]: 128 µg/mL (≈ 373 µM) | MIC [24]: 64 µg/mL (≈ 186 µM) | IC50 [25]: < 1000 nM
